Assay results published in patent publication US12251373B2, “Compounds and methods of treating retinal degeneration” (CASE WESTERN RESERVE UNIVERSITY, priority 2017, dated 2025).

Tests used:
[1] = Metabolic stability in human liver microsomes; type: in vitro ADME; conditions: 5 μM, with NADPH, vs verapamil
Experimental: A standard metabolic stability assay was performed in the presence of mouse or human liver microsomes. YC-001 (5 μM) was incubated with the microsomes (0.125 mg mL^−1) resuspended in 0.2 mL of PBS buffer, pH 7.4 composed of 10 mM Na2HPO4, 1.8 mM KH2PO4, 137 mM NaCl, and 2.7 mM KCl. The enzymatic reaction to produce oxidized metabolites was initiated by addition of NADPH (1 mM). Samples were incubated at 37° C. for up to 240 min. Incubation without the cofactor was conducted in parallel to assess NADPH-independent clearance. The reactions were stopped with 0.2 mL of methanol followed by 0.3 mL chloroform. Residual YC-001 was extracted by vigorous shaking. To facilitate phase separation, the samples were spun down for 2 min, 15,000×g. The chloroform fraction was collected, dried down, and the extracted organic compounds were redissolved in 0.2 mL of methanol. To quantify YC-001, the samples were injected onto an Eclipse XDB-C18 column (4.6×150 mm, 5 μm) (Agilent Technologies) equilibrated with solvent composed of 30% acetonitrile in water (v/v), and 0.1% formic acid. YC-001 was eluted in a gradient of acetonitrile in water (30-100%) developed within 15 min at a flow rate of 1 mL min^−1, detected at 350 nm, and quantified by correlating peak areas with known quantities of an original synthetic standard. […]

human clarin-1 N48K = target: T1, human clarin-1 N48K (Homo sapiens, UniProt P58418, N48K); assay: Image-based analysis of clarin-1 N48K-Venus in HEK 293 cells; type: cell-based
T1 sequence (P58418 1-232 N48K): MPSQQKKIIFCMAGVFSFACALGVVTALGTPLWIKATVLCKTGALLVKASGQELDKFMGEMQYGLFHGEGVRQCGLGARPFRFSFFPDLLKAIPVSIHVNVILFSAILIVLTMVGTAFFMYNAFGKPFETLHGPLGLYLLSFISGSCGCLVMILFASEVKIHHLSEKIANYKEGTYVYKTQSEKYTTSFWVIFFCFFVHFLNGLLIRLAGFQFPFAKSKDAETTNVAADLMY
Experimental: HEK 293 stable cells co-expressing human clarin-1 N48K-Venus fluorescent protein and DsRed-Express-DR fusion protein were obtained from Dr. Yoshikazu Imanishi at Case Western Reserve University (CWRU). Cells were cultured in DMEM medium with 10% FBS following guidelines from ATCC. To test effects of YC-001 treatments on clarin-1 N48K-Venus amounts in these cells, an image-based assay was performed. Briefly, cells were seeded at 20,000 cells per well in 40 μL per well DMEM medium with 10% FBS in a 384-well PerkinElmer View plate coated with poly-D-lysine and cultured at 37° C. with 5% CO2 for 24 h. Cells then were treated with 10 μL per well DMEM medium with 10% FBS containing 5× the final concentration of tested compounds. […] Each compound was tested with 10 doses in a 2-fold dilution series, featuring 3 biological replicates. The 384-well plate was put back for incubation at 37° C. with 5% CO2. After 24 h of exposure to test compounds, the plate was removed, and the medium was aspirated and replaced by 20 μL per well of 4% paraformaldehyde for fixation at RT for 20 min. […] Images were analyzed by the Columbus storage and analysis system (Perkin Elmer). Hoechst33342 fluorescence images were used to define nuclei and count cells. […] YFP and DsRed fluorescence intensities per cell were measured in each well.

C57BL/6 mice = assay: Scotopic ERG recovery after bleaching; type: in vivo, mouse; conditions: 200 mg kg−1 i.p., compared to DMSO
Experimental: C57BL/6 mice at 2 months of age were placed in the dark overnight. Mice then were divided into a YC-001-treated group, a DMSO-treated group, and an unbleached group. Each group contained 3 mice (2 females and 1 male). Mice were given a single dose of YC-001 at 200 mg kg^−1 by i.p. injection. The DMSO group was treated with an equivalent volume of DMSO compared to the YC-001-treated group. One h after YC-001 or DMSO administration, mouse eyes were treated with 1% tropicamide eye drops for pupil dilation, exposed to 2,000 lux of illumination for 5 min and returned to the dark. Mice were anesthetized after a bleach for scotopic ERG recordings. Briefly, every 5 min a single-flash scotopic ERG at 1.6 cd·s·m^−2 was recorded until 1 h after a bleach. A-wave amplitudes of each ERG recording were measured, averaged from three animals, and plotted as a function of time and fitted to a linear function using Origin software version 8.1.

SMILES: O=C1OCC(c2ccc(Cl)s2)=C1c1cccs1 [YC-001]
- initial clearance in liver microsomes [1]: even higher initial clearance
- amount or stability of the clarin-1 N48K mutant (human clarin-1 N48K): did not affect the amount or stability
- scotopic ERG a-wave recovery after bleach (C57BL/6 mice): did not inhibit rhodopsin regeneration
